What was measured:
[1] = tested on: human adrenal gland section expressing aldosterone-producing adenoma; test: In vitro autoradiography using human adrenal adenoma; format: binding
From the text: From adrenal gland excised from a human patient for treatment of primary aldosteronism, a portion containing aldosterone-producing adenoma was removed and was then frozen. The frozen adrenal gland was embedded in an embedding agent for production of a frozen tissue section (Tissue-Tek O.C.T. Compound, Sakura Finetek Japan). Using a freezing microtome (CM3050S, Leica Microsystems), a 7-μm thin slice section, which is schematically shown in FIGS. 17(a) and 17(b), was produced, and was preserved at −20° C. before use. In FIGS. 17, 71a and 71b indicate aldosterone-producing adenomas, 72a and 72b indicate normal adrenal cortexes, and 73a and 73b indicate normal adrenal medullas. A 5-33 kBq/mL solution was prepared by adding a suitable amount of each of Compounds [^18F] 100, [^18F] 200, [^123I] 400, [^18F] 500, and [^123I] 601 to [^123I] 610, which were obtained by the methods described in Examples 2, 4, 7, 9, 11, 13, 15, 17, 19, 21, 23, 25, 27, and 29, or [^123I] IMTO to a phosphate-buffered physiological saline containing 1 w/v % bovine serum albumin (not containing fatty acid). The radioactivity concentration was measured using an autowell gamma system (ARC-7001, manufactured by Hitachi Aloka Medical, Ltd.). The section was immersed in the obtained sample solution for 10 minutes. For Compounds [^18F] 100, [^18F] 200, [^123I] 400, [^18F] 500, [^123I] 601 and [^123I] 602, the section shown in FIG. 17(a) was used, and for Compounds […] [^123I] IMTO, both sections shown in FIGS. 17(a) and (b) were used. Each sample solution was washed off, and the section was then exposed to an imaging plate (BAS-SR2040, manufactured by FUJIFILM Holdings Corporation) (IP) for 16-20 hours, and thereafter, an autoradiogram was obtained using a fluoro-image analyzer (FLA-7000, manufactured by FUJIFILM Holdings Corporation).
In order to quantitatively compare differences between images caused by ^123I and ^18F nuclides, a correction was made by calculating accumulation of radioactivity within the range of a region of interest (ROI) by means of integral calculation based on half-life, added radioactivity and IP contact time.
610. FIG. 18(b), FIG. 19(b), FIG. 20(b), FIG. 21(b), FIG. 22(a), FIG. 23(a), FIG. 24(a), FIG. 25(a), FIG. 26(a), FIG. 27(a), FIG. 28(a), FIG. 29(a), FIG. 30(a), and FIG. 31(a) each show an autoradiogram of [^123I] IMTO. […] 100, [^18F] 200, [^123I] 400, [^18F] 500, and [^123I] 601 to [^123I] […] The ROI having the same area as each other was established in a normal site and in a site in which aldosterone-producing adenoma had developed. Then, the PSL value (B1) indicating accumulation of radioactivity in the sites of normal adrenal cortexes 72a and 72b was compared with the PSL value (B2) indicating accumulation of radioactivity in the sites of aldosterone-producing adenomas 71a and 71b. In Table 7, the B1, B2 and B2/B1 values of [^18F] 100 indicate the mean values for the number of tests (n), respectively.

[2] = In vivo kinetics experiment (radioactivity distribution); set-up: species or system Wistar male rat; conditions: rat; for Adrenal gland/blood ratio of radioactivity accumulation / Adrenal gland/fat ratio of radioactivity accumulation / Adrenal gland/kidney ratio of radioactivity accumulation / Adrenal gland/liver ratio of radioactivity accumulation / Adrenal gland/muscle ratio of radioactivity accumulation / Adrenal gland/small intestine ratio of radioactivity accumulation / Radioactivity distribution Adrenal gland / Radioactivity distribution Bladder (including urine) / Radioactivity distribution Blood / Radioactivity distribution Fat / Radioactivity distribution Femur / Radioactivity distribution Heart / Radioactivity distribution Kidney / Radioactivity distribution Large intestine / Radioactivity distribution Liver / Radioactivity distribution Lung / Radioactivity distribution Muscle (lower limbs) / Radioactivity distribution Remaining whole body / Radioactivity distribution Small intestine / Radioactivity distribution Spleen / Radioactivity distribution Stomach / Radioactivity distribution Testis / Radioactivity distribution Whole brain: caudal vein
Experimental: Each of Compounds [^18F] 100, [^18F] 200, [^123I] 400, [^18F] 500, and [^123I] 601 to 610 obtained by the methods described in Examples 2, 4, 7, 9, 11, 13, 15, 17, 19, 21, 23, 25, 27, and 29, or [^123I] IMTO, was diluted with a physiological saline containing 1 w/v % ascorbic acid to prepare a solution to be administered. The above described compound (approximately 1 to 3.7 MBq) was injected into the caudal vein of a Wistar male rat (9 weeks old) under anesthesia with a mixed gas of isoflurane/air, and ten minutes after the injection, the rat was sacrificed by exsanguination. From the thus sacrificed rat, blood and organs (heart, lung, stomach, liver, spleen, small intestine, large intestine, kidney, bladder (including urine), muscle (lower limbs), brain, adrenal gland, testis, fat, femur, or thyroid gland) were excised, and the weights thereof were then measured. Thereafter, radioactivity was measured in the blood, the individual excised organs, and the remaining whole body. Further, 30 and 60 minutes after the administration, the same operations as those described above were carried out. […] The symbol “n” in Tables 9 to 23 indicates the number of rats used. In addition, Tables 9 to 23 also show the ratio of radioactivity accumulation in adrenal grand (% ID/g) to radioactivity accumulation in each of blood, liver, kidney, small intestine, muscle and fat (% ID/g).

[3] = Plasma stability evaluation (TLC analysis); format: in vitro ADME; conditions: 37° C., 60 minutes
Experimental: Evaluation was made using a heparin-treated normal human plasma pool (Kohjin Bio Co., Ltd.). Compounds [^18F] 100, [^18F] 200, [^123I] 400, [^18F] 500, and [^123I] 601 to 610 obtained by the methods shown in Examples 2, 4, 7, 9, 11, 13, 15, 17, 19, 21, 23, 25, 27, and 29 were each added to the aforementioned human plasma (5 mL), and the obtained mixture was then incubated at 37° C. for 60 minutes. Thereafter, the mixture was centrifuged with addition of methanol, so that a deproteinization treatment was carried out. Thereafter, stability was evaluated by TLC analysis. As TLC analysis conditions, the TLC analysis conditions applied upon the above described synthesis of each compound were applied.

Fc1cc2nc(-c3cncc(Cn4ccnc4)c3)n(CC[18F])c2cc1Br [[^18F] 200, 6-Bromo-5-fluoro-1-(2-[^18F]fluoroethyl)-2-[5-(imidazol-1-ylmethyl)pyridin-3-yl]benzimidazole]
accumulation of radioactivity in adrenal gland section (autoradiogram) ([1]; FIGS. 18 to 31): accumulation of radioactivity was selectively observed in a region in which aldosterone-producing adenoma had been pathologically observed
B2/B1 accumulation ratio ([1]; section of FIG. 17(a)): 3.34
B2 (PSL value, aldosterone-producing adenoma) ([1]; section of FIG. 17(a), site 71a): 4409
B1 (PSL value, normal adrenal cortex) ([1]; section of FIG. 17(a), site 72a): 1321
accumulation of radioactivity in adrenal gland vs blood and peripheral tissues ([2]; Tables 9 to 22): high accumulation of radioactivity in adrenal gland was observed, in comparison to in blood and peripheral tissues
Adrenal gland/blood ratio of radioactivity accumulation ([2]; 10 min after administration): 100.87 ± 36.73
Adrenal gland/fat ratio of radioactivity accumulation ([2]; 10 min after administration): 174.42 ± 63.32
Adrenal gland/kidney ratio of radioactivity accumulation ([2]; 10 min after administration): 11.40 ± 5.81
Adrenal gland/liver ratio of radioactivity accumulation ([2]; 10 min after administration): 2.68 ± 1.01
Adrenal gland/muscle ratio of radioactivity accumulation ([2]; 10 min after administration): 88.35 ± 26.16
Adrenal gland/small intestine ratio of radioactivity accumulation ([2]; 10 min after administration): 13.32 ± 3.08
Radioactivity distribution Adrenal gland ([2]; 10 min after administration): 14.35 ± 4.09 % ID/g
Radioactivity distribution Bladder (including urine) ([2]; 10 min after administration): 1.28 ± 0.11 % ID/g
Radioactivity distribution Blood ([2]; 10 min after administration): 0.15 ± 0.01 % ID/g
Radioactivity distribution Fat ([2]; 10 min after administration): 0.08 ± 0.02 % ID/g
Radioactivity distribution Femur ([2]; 10 min after administration): 0.38 ± 0.03 % ID/g
Radioactivity distribution Heart ([2]; 10 min after administration): 0.32 ± 0.03 % ID/g
Radioactivity distribution Kidney ([2]; 10 min after administration): 1.39 ± 0.39 % ID/g
Radioactivity distribution Large intestine ([2]; 10 min after administration): 0.16 ± 0.01 % ID/g
Radioactivity distribution Liver ([2]; 10 min after administration): 5.54 ± 0.78 % ID/g
Radioactivity distribution Lung ([2]; 10 min after administration): 0.54 ± 0.07 % ID/g
Radioactivity distribution Muscle (lower limbs) ([2]; 10 min after administration): 0.16 ± 0.00 % ID/g
Radioactivity distribution Remaining whole body ([2]; 10 min after administration): 0.15 ± 0.00 % ID/g
Radioactivity distribution Small intestine ([2]; 10 min after administration): 1.07 ± 0.07 % ID/g
Radioactivity distribution Spleen ([2]; 10 min after administration): 1.49 ± 0.32 % ID/g
Radioactivity distribution Stomach ([2]; 10 min after administration): 0.36 ± 0.04 % ID/g
Radioactivity distribution Testis ([2]; 10 min after administration): 0.04 ± 0.00 % ID/g
Radioactivity distribution Whole brain ([2]; 10 min after administration): 0.02 ± 0.00 % ID/g
Adrenal gland/blood ratio of radioactivity accumulation ([2]; 30 min after administration): 145.45 ± 14.69
Adrenal gland/fat ratio of radioactivity accumulation ([2]; 30 min after administration): 425.84 ± 103.54
Adrenal gland/kidney ratio of radioactivity accumulation ([2]; 30 min after administration): 17.00 ± 1.67
Adrenal gland/liver ratio of radioactivity accumulation ([2]; 30 min after administration): 5.06 ± 0.59
Adrenal gland/muscle ratio of radioactivity accumulation ([2]; 30 min after administration): 158.65 ± 18.59
Adrenal gland/small intestine ratio of radioactivity accumulation ([2]; 30 min after administration): 8.44 ± 1.36
Radioactivity distribution Adrenal gland ([2]; 30 min after administration): 22.61 ± 2.12 % ID/g
Radioactivity distribution Bladder (including urine) ([2]; 30 min after administration): 2.82 ± 1.27 % ID/g
Radioactivity distribution Blood ([2]; 30 min after administration): 0.16 ± 0.00 % ID/g
Radioactivity distribution Fat ([2]; 30 min after administration): 0.06 ± 0.02 % ID/g
Radioactivity distribution Femur ([2]; 30 min after administration): 0.40 ± 0.10 % ID/g
Radioactivity distribution Heart ([2]; 30 min after administration): 0.33 ± 0.02 % ID/g
Radioactivity distribution Kidney ([2]; 30 min after administration): 1.33 ± 0.03 % ID/g
Radioactivity distribution Large intestine ([2]; 30 min after administration): 0.27 ± 0.04 % ID/g
Radioactivity distribution Liver ([2]; 30 min after administration): 4.48 ± 0.13 % ID/g
Radioactivity distribution Lung ([2]; 30 min after administration): 0.48 ± 0.04 % ID/g
Radioactivity distribution Muscle (lower limbs) ([2]; 30 min after administration): 0.14 ± 0.01 % ID/g
Radioactivity distribution Remaining whole body ([2]; 30 min after administration): 0.13 ± 0.02 % ID/g
Radioactivity distribution Small intestine ([2]; 30 min after administration): 2.70 ± 0.21 % ID/g
Radioactivity distribution Spleen ([2]; 30 min after administration): 1.09 ± 0.25 % ID/g
Radioactivity distribution Stomach ([2]; 30 min after administration): 0.56 ± 0.06 % ID/g
Radioactivity distribution Testis ([2]; 30 min after administration): 0.05 ± 0.04 % ID/g
Radioactivity distribution Whole brain ([2]; 30 min after administration): 0.01 ± 0.00 % ID/g
Adrenal gland/blood ratio of radioactivity accumulation ([2]; 60 min after administration): 168.33 ± 36.80
Adrenal gland/fat ratio of radioactivity accumulation ([2]; 60 min after administration): 417.70 ± 25.29
Adrenal gland/kidney ratio of radioactivity accumulation ([2]; 60 min after administration): 18.05 ± 3.00
Adrenal gland/liver ratio of radioactivity accumulation ([2]; 60 min after administration): 6.87 ± 1.26
Adrenal gland/muscle ratio of radioactivity accumulation ([2]; 60 min after administration): 180.41 ± 24.02
Adrenal gland/small intestine ratio of radioactivity accumulation ([2]; 60 min after administration): 5.43 ± 1.42
Radioactivity distribution Adrenal gland ([2]; 60 min after administration): 21.73 ± 3.25 % ID/g
Radioactivity distribution Bladder (including urine) ([2]; 60 min after administration): 5.83 ± 2.21 % ID/g
Radioactivity distribution Blood ([2]; 60 min after administration): 0.13 ± 0.01 % ID/g
Radioactivity distribution Fat ([2]; 60 min after administration): 0.05 ± 0.00 % ID/g
Radioactivity distribution Femur ([2]; 60 min after administration): 0.28 ± 0.00 % ID/g
Radioactivity distribution Heart ([2]; 60 min after administration): 0.27 ± 0.02 % ID/g
Radioactivity distribution Kidney ([2]; 60 min after administration): 1.21 ± 0.04 % ID/g
Radioactivity distribution Large intestine ([2]; 60 min after administration): 0.41 ± 0.06 % ID/g
Radioactivity distribution Liver ([2]; 60 min after administration): 3.18 ± 0.23 % ID/g
Radioactivity distribution Lung ([2]; 60 min after administration): 0.39 ± 0.09 % ID/g
Radioactivity distribution Muscle (lower limbs) ([2]; 60 min after administration): 0.12 ± 0.00 % ID/g
Radioactivity distribution Remaining whole body ([2]; 60 min after administration): 0.12 ± 0.00 % ID/g
Radioactivity distribution Small intestine ([2]; 60 min after administration): 4.13 ± 0.83 % ID/g
Radioactivity distribution Spleen ([2]; 60 min after administration): 0.68 ± 0.05 % ID/g
Radioactivity distribution Stomach ([2]; 60 min after administration): 0.65 ± 0.16 % ID/g
Radioactivity distribution Testis ([2]; 60 min after administration): 0.09 ± 0.00 % ID/g
Radioactivity distribution Whole brain ([2]; 60 min after administration): 0.01 ± 0.00 % ID/g
stability in human plasma [3]: hardly metabolized and decomposed in the plasma
Radiochemical purity after incubation in human plasma ([3]; TLC analysis): 92%
